Columns and labels:
db/db mice [1] = test: Glucose and lipid metabolism in db/db mice, 56 d administration; assay type: in vivo; conditions: once/d 56 d, TMP 5.0 mg/kg, mean±SEM, n=6; for Creatinine / Total cholesterol / Triglyceride / Urea: Losartan 10 mg/kg; for Creatinine / Total cholesterol / Triglyceride / Urea / Glucose determination / High-density lipoprotein cholesterol / Low-density lipoprotein cholesterol: OLB-1/OLB-2 13.32 mg/kg; for Glycated hemoglobin / Glucose determination / High-density lipoprotein cholesterol / Low-density lipoprotein cholesterol: metformin 225 mg/kg/d; for Glycated hemoglobin: OLB-1/OLB-2 13.32 mg/kg (0.037 mmol/kg)
Method: Mice of a normal control group and model mice were given normal saline 10 ml/kg/d, metformin hydrochloride enteric-coated tablets 225 mg/kg/d, Losartan 10 mg/kg, TMP (5.0 mg/kg, 0.037 mmol/kg), and OLB-1 and OLB-2 (13.32 mg/kg, 0.037 mmol/kg), at a volume of 10 mL/kg, once/d, for continuous administration of 56 d, blood lipids and blood glucose related indexes were measured after blood collection. Data were presented as mean±SEM; n=6 per group. One-way ANOVA and multiple range test were adopted to show differences between the two groups. a, p<0.05 vs. db/db group; c, p<0.001 vs. db/db group.

[2] = system: 6-OHDA Parkinson's disease rats; test: APO-induced rotations in 6-OHDA Parkinson's disease rats; assay type: in vivo; conditions: APO-induced 6-OHDA rats, 2 weeks of treatment; different dosages of OLB-1, OLB-2; levodopa 25 mg/kg; FIG. 8
Text: There is no rotation in a sham-operated group, and there is no significant difference between the groups injected with 6-OHDA, and there are about 180 rotations. […] Data were presented as mean±SEM; n=9-10 per group. One-way ANOVA and multiple range test were adopted to show differences between the two groups. *p<0.05, **p<0.01 vs. before 6-OHDA group.

[3] = system: SH—SY5Y neuroblastoma cells; test: LPS-induced inflammatory factors and oxidative stress-related proteins, ELISA kit; assay type: cell-based; conditions: 1 μg/mL LPS 24 h, mean±SEM, n=8; for TNF-alpha: differentiated SH-SY5Y, supernatant
Method: The SH—SY5Y cells were recovered and cultured, and the cells in the logarithmic growth phase were taken. After 24 h of incubation, SH—SY5Y neuroblastoma cells were treated with 1 μM all-trans retinoic acid to induce differentiation, and then inoculated into a 6-well culture dish for 24 h of incubation. The medium was treated with chemicals feed at 0.2 μM (L) or 1 μM (H) and 1 μg/mL LPS for 24 h, a supernatant medium was aspirated, and changes of inflammatory factors and oxidative stress-related proteins were measured by an ELISA kit. Data were presented as mean±SEM; n=8 per group. One-way ANOVA and multiple range test were adopted to show differences between the two groups. a, p<0.05 vs. LPS group; b, p<0.01 vs. LPS group; c, p<0.001 vs. LPS group.

db/db mice [4] = test: Biochemical and metabolic indicators in db/db mice, 90 d administration; assay type: in vivo; conditions: once/d 90 d, Losartan 15 mg/kg/d, TMP 5.0 mg/kg, OLB-1 2.31 mg/kg, OLB-2 2.3 mg/kg, mean±SEM, n=6
db/db mice [5] = test: Urinary protein level in db/db mice, 90 d administration; assay type: in vivo; conditions: once/d 90 d, OLB-1 11.7 mg/kg, OLB-2 11.67 mg/kg, FIG. 2
Method: Mice of a normal control group and model mice were given normal saline 10 ml/kg/d, Losartan 10 mg/kg, TMP (5.0 mg/kg, 0.037 mmol/kg), OLB-1 (11.7 mg/kg, 0.037 mmol/kg), and OLB-2 (11.67 mg/kg, […]), at a volume of 10 mL/kg, once/d, for continuous administration of 90 d, urine protein levels were measured after urine collection. Data were presented as mean±SEM; n=6 per group. One-way ANOVA and multiple range test were adopted to show differences between the two groups. a, p<0.05 vs. db/db group; c, p<0.001 vs. db/db group.

[6] = system: ALS (SOD-G93A) transgenic mice; test: Limb grip force test in ALS transgenic mice; assay type: in vivo; conditions: different dosages of OLB-1, OLB-2, riluzole 5 mg/kg, FIG. 7
Method: The limb grip force test is used directly to assess muscle strength in mice. […] After the start of administration, the grip force of the mice was tested every two weeks, and the measurement was repeated three times for each mouse, and the maximum among the three results was taken as a maximum grip force of the mice. […] Data were presented as mean±SEM; n=10 per group. One-way ANOVA and multiple range test show differences between the two groups. **p<0.01, ***p<0.001 vs. WT (normal control) group; #p<0.05, ##p<0.01 vs. ALS (SOD-G93A) group.

[7] = system: ALS (SOD-G93A) transgenic mice; test: Pole climbing test in ALS transgenic mice; assay type: in vivo; conditions: different dosages of OLB-1, OLB-2, riluzole 5 mg/kg, FIG. 6
Text: The pole climbing test is generally used to evaluate a motor coordination ability and motor delay of the limbs in mice. A homemade wooden pole about 50 cm long and about 1 cm in diameter was wrapped with medical gauze to increase friction of the wooden pole. The wooden pole was put vertically on a horizontal table, the mouse tail was grabbed such that the mouse head was facing down, with limbs grabbing a top of the pole; after releasing the mouse tail, timing was started, and it was ensured that the mouse crawled downward without external force, and the time was recorded for the mouse to climb from the top of the pole to a bottom platform (a standard was that mouse hind limbs were landed on the ground). […] An average of the three pole climbing times of mice was calculated as a final pole climbing time. […] Data were presented as mean±SEM; n=10 per group. One-way ANOVA and multiple range test were adopted to show differences between the two groups. ***p<0.001 vs. WT (normal control) group; #p<0.05, ##p<0.01 vs. ALS (SOD-G93A) group.

## Cc1nc(C)c(COC(=O)OCCc2ccc(O)cc2)nc1C [OLB-1]
db/db mice [1]
  Creatinine: 48.7 ± 3.68(a) μmol/L
  Total cholesterol: 8.36 ± 2.63(c) mM
  Triglyceride: 10.88 ± 0.92(b) mg/dL
  Urea: 8.03 ± 0.61(c) mmol/L
  Glycated hemoglobin: 643.06 ± 61.53(c) nmol/L
  Glucose determination: 25.99 ± 4.46(c) mM
  High-density lipoprotein cholesterol: 1.81 ± 0.15(b) mM
  Low-density lipoprotein cholesterol: 0.69 ± 0.04(c) mM
[2]
  number of rotations: effectively reduce the number of rotations
[3]; compound 0.2 μM (L)
  GSH-Px: 8.39 ± 0.69(c) umol/mg
  IL1: 10.94 ± 1.48(a) pg/ml
  IL6: 11.60 ± 1.39(a) pg/ml
  MDA: 16.15 ± 1.26(c) nmol/mg
  SOD: 12.58 ± 0.72(b) nU/ml
  TNF-alpha: 9.64 ± 1.56(a) pg/ml
[3]; compound 1 μM (H)
  GSH-Px: 13.71 ± 0.84(c) umol/mg
  IL1: 8.46 ± 1.33(b) pg/ml
  IL6: 7.97 ± 1.61(c) pg/ml
  MDA: 10.51 ± 0.74(c) nmol/mg
  SOD: 16.76 ± 0.38(c) nU/ml
  TNF-alpha: 6.78 ± 1.67(c) pg/ml
db/db mice [4]
  Creatinine: 48.7 ± 3.68(a) μmol/L
  Urea: 8.03 ± 0.61(c) mmol/L
  Urine albumin/creatinine: 438.69 ± 83.23(c) mg/g
db/db mice [5]
  urinary protein levels: significantly reduced urinary protein levels
[6]
  limb grip force: effectively increase the limb force
[7]
  pole climbing time / symptoms of bradykinesia: significantly improve the symptoms of bradykinesia

## Cc1nc(C)c(CNC(=O)OCCc2ccc(O)cc2)nc1C [OLB-2]
db/db mice [1]
  Creatinine: 46.28 ± 2.76(b) μmol/L
  Total cholesterol: 7.38 ± 0.34(c) mM
  Triglyceride: 10.65 ± 0.54(b) mg/dL
  Urea: 7.48 ± 0.35(c) mmol/L
  Glycated hemoglobin: 595.38 ± 52.47(c) nmol/L
  Glucose determination: 26.61 ± 1.15(c) mM
  High-density lipoprotein cholesterol: 1.87 ± 0.18(b) mM
  Low-density lipoprotein cholesterol: 0.51 ± 0.03(c) mM
[2]
  number of rotations: effectively reduce the number of rotations
[3]; compound 0.2 μM (L)
  GSH-Px: 7.93 ± 1.05(b) umol/mg
  IL1: 10.34 ± 1.89(a) pg/ml
  IL6: 11.05 ± 1.87(a) pg/ml
  MDA: 15.75 ± 0.95(c) nmol/mg
  SOD: 12.13 ± 0.65(b) nU/ml
  TNF-alpha: 9.92 ± 1.44(b) pg/ml
[3]; compound 1 μM (H)
  GSH-Px: 13.40 ± 1.24(c) umol/mg
  IL1: 7.37 ± 1.58(c) pg/ml
  IL6: 8.19 ± 1.24(c) pg/ml
  MDA: 9.37 ± 0.73(c) nmol/mg
  SOD: 15.16 ± 1.52(c) nU/ml
  TNF-alpha: 6.99 ± 1.31(c) pg/ml
db/db mice [4]
  Creatinine: 46.28 ± 2.76(b) μmol/L
  Urea: 7.48 ± 0.35(c) mmol/L
  Urine albumin/creatinine: 477.51 ± 90.68(c) mg/g
db/db mice [5]
  urinary protein levels: significantly reduced urinary protein levels
[6]
  limb grip force: effectively increase the limb force
[7]
  pole climbing time / symptoms of bradykinesia: significantly improve the symptoms of bradykinesia
